According to patent US20240041042A1, “1-(PYRIDYL)-5-AZINYLPYRAZOLE DERIVATIVES, AND THEIR USE FOR CONTROL OF UNDESIRED PLANT GROWTH” (Bayer Aktiengesellschaft, priority 2020, published 2024):
Read-outs that look alike come from different tables or passages of the source.

What was measured:
Format in all cases: in vivo
[1] = test system: Verconica persica (VERPE); experiment: Pre-emergence herbicidal action against VERPE; details: dosage 320 g/ha
Outline: (§1)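 Application rates ran to 320 g/ha or lower, with several dosages tested on the same weeds. The compound, as wettable powder or emulsion concentrate, is sprayed pre-emergence onto soil over sown seeds; greenhouse growth follows, and effect is rated visually after roughly 3 weeks.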

Viola tricolor (VIOTR) [2] = experiment: Post-emergence herbicidal action against VIOTR
Outline: (§2)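 Values are percent visual activity (0% like control, 100% plants dead) after about 3 weeks in the greenhouse. Treatment: post-emergence spray at one-leaf stage, 600 l/ha spray volume, 0.5% additive, doses 320 g/ha or lower.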

[3] = test system: Pharbitis purpurea (PHBPU); experiment: Post-emergence herbicidal action against PHBPU
Outline: as §2

Lolium rigidum (LOLRI) [4] = experiment: Pre-emergence herbicidal action against LOLRI
Outline: as §1

[5] = test system: Verconica persica (VERPE); experiment: Post-emergence herbicidal action against VERPE
Outline: as §2

[6] = test system: Matricaria inodora (MATIN); experiment: Pre-emergence herbicidal action against MATIN; details: dosage 320 g/ha
Outline: as §1

[7] = test system: Alopecurus myosuroides (ALOMY); experiment: Pre-emergence herbicidal action against ALOMY; details: scored visually after about 3 weeks, 100% = plants have died
Outline: as §1

[8] = test system: Abutilon theophrasti (ABUTH); experiment: Post-emergence herbicidal action against ABUTH; details: 80 g/ha, visual rating about 3 weeks after treatment vs untreated controls (100% = plants have died, 0% = like control plants)
Outline: as §2

[9] = test system: Amaranthus retroflexus (AMARE); experiment: Post-emergence herbicidal action against AMARE
Outline: as §2

Setaria viridis (SETVI) [10] = experiment: Pre-emergence herbicidal action against SETVI
Outline: as §1

[11] = test system: Echinochloa crus-galli (ECHCG); experiment: Pre-emergence herbicidal action against ECHCG; details: dosage 320 g/ha
Outline: as §1

[12] = test system: Digitaria sanguinalis (DIGSA); experiment: Pre-emergence herbicidal action against DIGSA
Outline: as §1

[13] = test system: Amaranthus retroflexus (AMARE); experiment: Pre-emergence herbicidal action against AMARE; details: visual scoring after about 3 weeks vs untreated controls
Outline: as §1

[14] = test system: Echinochloa crus-galli (ECHCG); experiment: Post-emergence herbicidal action against ECHCG; details: dosage 80 g/ha
Outline: as §2

Viola tricolor (VIOTR) [15] = experiment: Pre-emergence herbicidal action against VIOTR
Outline: as §1

Avena fatua (AVEFA) [16] = experiment: Post-emergence herbicidal action against AVEFA; details: 80 g/ha, visual rating about 3 weeks after treatment
Outline: as §2

Oryza sativa (ORYSA) [17] = details: crop plant compatibility
Outline: (§3)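 Percent effect on the crop was judged by eye against untreated controls, where 0% means like control and 100% means dead plants. Plants had been sprayed post-emergence at the one-leaf stage and then kept under optimum greenhouse conditions for about 3 weeks.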

Avena fatua (AVEFA) [18] = experiment: Pre-emergence herbicidal action against AVEFA; details: 320 g/ha, visual scoring after about 3 weeks vs untreated controls
Outline: as §1

[19] = test system: Matricaria inodora (MATIN); experiment: Post-emergence herbicidal action against MATIN
Outline: as §2

[20] = test system: Polygonum convolvulus (POLCO); experiment: Pre-emergence herbicidal action against POLCO; details: dosage 320 g/ha
Outline: as §1

[21] = test system: Pharbitis purpurea (PHBPU); experiment: Pre-emergence herbicidal action against PHBPU
Outline: as §1

Lolium rigidum (LOLRI) [22] = experiment: Post-emergence herbicidal action against LOLRI; details: dosage 80 g/ha
Outline: as §2

Setaria viridis (SETVI) [23] = experiment: Post-emergence herbicidal action against SETVI; details: dosage 80 g/ha
Outline: as §2

[24] = test system: Digitaria sanguinalis (DIGSA); experiment: Post-emergence herbicidal action against DIGSA; details: 80 g/ha, visual rating about 3 weeks after treatment
Outline: as §2

Oryza sativa (ORYSA) [25] = details: pre-emergence, 80 g/ha, crop plant compatibility, in comparison to untreated controls
Outline: (§4)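 Crop injury rated visually in percent against untreated plants roughly 3 weeks after treatment (0% no effect, 100% plants dead). Compounds, as WP or EC with 0.5% additive in 600 l/ha water, were applied to the covering soil right after sowing; greenhouse growth. Suffixes a, b, c denote different dosages.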

[26] = test system: Alopecurus myosuroides (ALOMY); experiment: Post-emergence herbicidal action against ALOMY; details: 80 g/ha, visual rating about 3 weeks after treatment vs untreated controls (100% = plants have died, 0% = like control plants)
Outline: as §2

Zea mays (ZEAMX) [27] = test system: Zea mays (ZEAMX)
Outline: as §3

[28] = test system: Polygonum convolvulus (POLCO); experiment: Post-emergence herbicidal action against POLCO
Outline: as §2

Zea mays (ZEAMX) [29] = details: pre-emergence, 80 g/ha, crop plant compatibility, in comparison to untreated controls
Outline: as §4

[30] = 80 g/ha, visual rating about 3 weeks after treatment vs untreated controls (100% = plants have died, 0% = like control plants)
[31] = 80 g/ha, visual scoring after about 3 weeks vs untreated controls
[32] = 20 g/ha, effect vs untreated controls
[33] = 80 g/ha, effect in comparison to untreated controls

Row | SMILES | Pre-emergence action against VERPE in % [1] [%] | Post-emergence action against VIOTR in % (Viola tricolor (VIOTR) [2]; 80 g/ha) [%] | Post-emergence action against PHBPU in % ([3]; dosage 80 g/ha) [%] | Pre-emergence action against LOLRI in % (Lolium rigidum (LOLRI) [4]; dosage 320 g/ha) [%] | Post-emergence action against VERPE in % ([5]; dosage 80 g/ha) [%] | Pre-emergence action against MATIN in % [6] [%] | Pre-emergence action against ALOMY ([7]; 80 g/ha) [%] | Pre-emergence action against ALOMY ([7]; 320 g/ha) [%] | Post-emergence action against AMARE in % [9, 30] [%] | Pre-emergence action against SETVI in % (Setaria viridis (SETVI) [10]; dosage 80 g/ha) [%] | Pre-emergence action against SETVI in % (Setaria viridis (SETVI) [10]; dosage 320 g/ha) [%] | Pre-emergence action against DIGSA in % [12, 31] [%] | Pre-emergence action against DIGSA in % ([12]; dosage 320 g/ha) [%] | Pre-emergence action against AMARE in % ([13]; 80 g/ha) [%] | Pre-emergence action against AMARE in % ([13]; 320 g/ha) [%] | Pre-emergence action against VIOTR in % (Viola tricolor (VIOTR) [15]; 320 g/ha, Viola tricolor) [%] | Post-emergence action against ORYSA in % (Oryza sativa (ORYSA) [17]; [32]) [%] | Pre-emergence action against AVEFA in % (Avena fatua (AVEFA) [18]) [%] | Pre-emergence action against POLCO in % [20] [%] | Pre-emergence action against ORYSA in % (Oryza sativa (ORYSA) [25]) [%] | other results
1 | COC(=O)CNC(=O)COc1nn(-c2ccccn2)c(-c2ccc(F)nc2)c1Cl [Example I-64] | 90 | 80 | 90 | 100 | 90 | 90 | 90 | 100 | 90 | 90 | 100 | 100 | 100 | 100 | 100 | 90 | 10 | 90 | 90 | 20 | Pre-emergence action against LOLRI in % (Lolium rigidum (LOLRI) [4]; dosage 80 g/ha): 80%; Post-emergence action against ABUTH in % [8]: 90%; Pre-emergence action against ECHCG in % [11]: 100%; Post-emergence action against ECHCG in % [14]: 90%; Post-emergence action against AVEFA in % (Avena fatua (AVEFA) [16]): 80%; Post-emergence action against MATIN in % ([19]; dosage 80 g/ha): 90%; Pre-emergence action against PHBPU in % ([21]; dosage 80 g/ha): 90%; Pre-emergence action against PHBPU in % ([21]; dosage 320 g/ha): 90%; Post-emergence action against LOLRI in % (Lolium rigidum (LOLRI) [22]): 80%; Post-emergence action against SETVI in % (Setaria viridis (SETVI) [23]): 90%; Post-emergence action against DIGSA in % [24]: 90%; Post-emergence action against ALOMY in % [26]: 100%
2 | COC(=O)CNC(=O)COc1nn(-c2ccccn2)c(-c2ccc(F)nc2)c1Br [Example I-97] | 90 | 80 | 80 | 100 | 90 | 80 | 90 | 100 | 90 | 80 | 100 | 100 | 100 | 90 | 100 | 100 | 0 | 80 | 90 | 10 | Pre-emergence action against LOLRI in % (Lolium rigidum (LOLRI) [4]; dosage 80 g/ha): 80%; Post-emergence action against ABUTH in % [8]: 90%; Post-emergence action against ECHCG in % [14]: 80%; Post-emergence action against AVEFA in % (Avena fatua (AVEFA) [16]): 80%; Post-emergence action against ORYSA in % (Oryza sativa (ORYSA) [17]; [33]): 10%; Post-emergence action against MATIN in % ([19]; dosage 80 g/ha): 80%; Pre-emergence action against PHBPU in % ([21]; dosage 320 g/ha): 90%; Post-emergence action against SETVI in % (Setaria viridis (SETVI) [23]): 80%; Post-emergence action against DIGSA in % [24]: 80%; Post-emergence action against ALOMY in % [26]: 90%
3 | O=C(O)COc1nn(-c2ccccn2)c(-c2ccnc(F)c2)c1Br [Example I-122] | 100 | – | – | 100 | 80 | 80 | 80 | 100 | 90 | 100 | 100 | 100 | 100 | 80 | 100 | 100 | 0 | 90 | 80 | 0 | Pre-emergence action against ECHCG in % [11]: 100%; Pre-emergence action against VIOTR in % (Viola tricolor (VIOTR) [15]; dosage 80 g/ha): 100%; Post-emergence action against ORYSA in % (Oryza sativa (ORYSA) [17]; [33]): 0%; Post-emergence action against ZEAMX in % (crop plant compatibility) (Zea mays (ZEAMX) [27]; 20 g/ha, ZEAMX, effect in comparison to untreated controls): 0%; Pre-emergence action against PHBPU in % ([21]; dosage 320 g/ha): 90%; Post-emergence action against POLCO in % ([28]; dosage 80 g/ha): 90%; Pre-emergence action against ZEAMX in % (Zea mays (ZEAMX) [29]): 0%
4 | COC(=O)CCOC(=O)COc1nn(-c2ccccn2)c(-c2ccc(Cl)nc2)c1Br [Example I-246] | 80 | 80 | 80 | – | – | – | – | – | – | – | – | – | 90 | – | 90 | – | – | – | – | 0 | Post-emergence action against VIOTR in % (Viola tricolor (VIOTR) [2]; 320 g/ha): 80%; Post-emergence action against PHBPU in % ([3]; dosage 320 g/ha): 80%; Post-emergence action against VERPE in % ([5]; 320 g/ha, VERPE): 80%; Post-emergence action against AMARE in % ([9]; 320 g/ha, visual rating about 3 weeks after treatment): 80%; Post-emergence action against ORYSA in % (Oryza sativa (ORYSA) [17]; [33]): 0%; Post-emergence action against ORYSA in % (Oryza sativa (ORYSA) [17]; 320 g/ha, effect in comparison to untreated controls): 10%; Post-emergence action against ZEAMX in % (Zea mays (ZEAMX) [27]; crop plant compatibility, 80 g/ha, effect vs untreated controls): 10%; Post-emergence action against MATIN in % ([19]; dosage 320 g/ha): 80%; Post-emergence action against POLCO in % ([28]; dosage 320 g/ha): 80%; Pre-emergence action against ZEAMX in % (Zea mays (ZEAMX) [29]): 20%
